“And” between values parts separate entries of the source, which are not always exact repeats. Equal values may be shown once. Inconclusive results and toxic doses are left out. How the source made its calls: active means survival T/C of 150% or more; inactive means T/C below 125% in these data. Peptide text beside a SMILES is read from it.
Test system: P388 leukemia ip, CD2F1 mice, survival T/C
Test: NCI In Vivo Anticancer Drug Screen. Data for tumor model P388 Leukemia (intraperitoneal) in CD2F1 (CDF1) mice
Settings: endpoint: median survival time, higher = longer survival
Procedure, shortened: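 Mice carrying the transplanted tumor received test compound or vehicle. Survival was recorded in each group, and the value is the treated-group measurement divided by that of the vehicle-treated control group.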

[1] = dose: 100.0 mg/kg/injection, schedule: Q01DX009 (ip), vehicle: saline with Tween-80
[2] = dose: 200.0 mg/kg/injection, schedule: Q01DX009 (ip), vehicle: saline with Tween-80
[3] = dose: 50.0 mg/kg/injection, schedule: Q01DX009 (ip), vehicle: Klucel (hydroxypropylcellulose) (HPC)
[4] = dose: 100.0 mg/kg/injection, schedule: Q01DX009 (ip), vehicle: Klucel (hydroxypropylcellulose) (HPC)
[5] = dose: 200.0 mg/kg/injection, schedule: Q01DX009 (ip), vehicle: Klucel (hydroxypropylcellulose) (HPC)
[6] = dose: 50.0 mg/kg/injection, schedule: Q01DX009 (ip), vehicle: saline
[7] = dose: 15.0 mg/kg/injection, schedule: Q01DX005 (ip), vehicle: saline with Tween-80
[8] = dose: 100.0 mg/kg/injection, schedule: Q01DX009 (ip), vehicle: saline
[9] = dose: 50.0 mg/kg/injection, schedule: Q01DX005 (ip), vehicle: Klucel (hydroxypropylcellulose) (HPC)
[10] = dose: 100.0 mg/kg/injection, schedule: Q01DX005 (ip), vehicle: Klucel (hydroxypropylcellulose) (HPC)
[11] = dose: 200.0 mg/kg/injection, schedule: Q01DX005 (ip), vehicle: Klucel (hydroxypropylcellulose) (HPC)
[12] = dose: 30.0 mg/kg/injection, schedule: Q01DX005 (ip), vehicle: saline with Tween-80
[13] = dose: 60.0 mg/kg/injection, schedule: Q01DX005 (ip), vehicle: saline with Tween-80
[14] = dose: 120.0 mg/kg/injection, schedule: Q01DX005 (ip), vehicle: saline with Tween-80
[15] = dose: 240.0 mg/kg/injection, schedule: Q01DX005 (ip), vehicle: saline with Tween-80
[16] = dose: 100.0 mg/kg/injection, schedule: Q01DX001 (ip), vehicle: saline with Tween-80
[17] = dose: 200.0 mg/kg/injection, schedule: Q01DX001 (ip), vehicle: saline with Tween-80

Measured: T/C

Cc1ccc(S(=O)(=O)N=P(c2ccccc2)(c2ccccc2)c2ccccc2)cc1
inactive: [1] 91 % of control | [2] 95 % of control

O=C1NC(=O)N(CCO)C(=O)C1c1ccccc1 (stereo unspecified)
inactive: [3] 101 % of control | [4] 101 % of control | [5] 94 % of control

[Cl][Sn]1([c]2ccccc2)[O]CCNCC[O]1
inactive: dose: 25.0 mg/kg/injection, schedule: Q01DX009 (ip), vehicle: suspension in saline 97 % of control | [6] 120 % of control | dose: 50.0 mg/kg/injection, schedule: Q01DX009 (ip), vehicle: suspension in saline 109 % of control | dose: 100.0 mg/kg/injection, schedule: Q01DX009 (ip), vehicle: suspension in saline 109 % of control

CCCC(=O)Nc1ccc([N+](=O)[O-])cc1OC
inactive: dose: 100.0 mg/kg/injection, schedule: Q04DX003 (ip), vehicle: saline with Tween-80 88 % of control | dose: 200.0 mg/kg/injection, schedule: Q04DX003 (ip), vehicle: saline with Tween-80 100 % of control | dose: 400.0 mg/kg/injection, schedule: Q04DX003 (ip), vehicle: saline with Tween-80 100 % of control

C=C(C)C12OC3(CCCCCCCCC)OC1C1C4OC4(CO)C(O)C4(O)C(=O)C(C)=CC4C1(O3)C(C)C2OC(C)=O (stereo unspecified)
inactive: dose: 12.5 micrograms/kg/injection, schedule: Q01DX009 (ip), vehicle: saline + alcohol 101 % of control | dose: 25.0 micrograms/kg/injection, schedule: Q01DX009 (ip), vehicle: saline + alcohol 104 % of control | dose: 50.0 micrograms/kg/injection, schedule: Q01DX009 (ip), vehicle: saline + alcohol 104 % of control | dose: 100.0 micrograms/kg/injection, schedule: Q01DX009 (ip), vehicle: saline + alcohol 104 % of control | dose: 200.0 micrograms/kg/injection, schedule: Q01DX009 (ip), vehicle: saline + alcohol 123 % of control

COC(=O)NC1C(=O)CCC(=O)C1C(N)=O (stereo unspecified)
inactive: dose: 7.5 mg/kg/injection, schedule: Q01DX005 (ip), vehicle: saline with Tween-80 86 % of control | [7] 98 % of control

CC1(C)C=Cc2cc3c(cc2O1)OC[C@H]1c2cc4c(cc2O[C@@H]31)OCO4
inactive: dose: 25.0 mg/kg/injection, schedule: Q04DX002 (ip), vehicle: Klucel (hydroxypropylcellulose) (HPC) 97 % of control | dose: 50.0 mg/kg/injection, schedule: Q04DX002 (ip), vehicle: Klucel (hydroxypropylcellulose) (HPC) 100 % of control | dose: 100.0 mg/kg/injection, schedule: Q04DX002 (ip), vehicle: Klucel (hydroxypropylcellulose) (HPC) 100 % of control | dose: 400.0 mg/kg/injection, schedule: Q04DX002 (ip), vehicle: Klucel (hydroxypropylcellulose) (HPC) 89 % of control

Cc1ccc(S(=O)(=O)C(Sc2ccccc2)=S=NC23CC4CC(CC(C4)C2)C3)cc1
inactive: [6] 100 % of control | [8] 108 % of control | dose: 200.0 mg/kg/injection, schedule: Q01DX009 (ip), vehicle: saline 97 % of control

CC(=O)OCC1OC(n2cnc3c(Cl)nc(N)nc32)C(OC(C)=O)C1OC(C)=O (stereo unspecified)
inactive: dose: 25.0 mg/kg/injection, schedule: Q01DX005 (ip), vehicle: Klucel (hydroxypropylcellulose) (HPC) 101 % of control | [9] 101 % of control | [10] 108 % of control | [11] 105 % of control

O=c1oc2ccccc2c(O)c1C(c1ccc(Cl)cc1)c1c(O)c2ccccc2oc1=O
inactive: [7] 94 % of control | [12] 93 % of control

CCn1c2ccccc2c2cc(N=Nc3ccc(O)c4ccccc34)ccc21
inactive: [3] 105 % of control | [4] 101 % of control and 106 % of control | [5] 100 % of control and 102 % of control

Cc1cc2c(=O)cc(-c3ccc(Cl)cc3)oc2c(C#N)c1C
inactive: dose: 60.0 mg/kg/injection, schedule: Q01DX005 (ip), vehicle: Klucel (hydroxypropylcellulose) (HPC) 89 % of control | dose: 120.0 mg/kg/injection, schedule: Q01DX005 (ip), vehicle: Klucel (hydroxypropylcellulose) (HPC) 93 % of control | dose: 240.0 mg/kg/injection, schedule: Q01DX005 (ip), vehicle: Klucel (hydroxypropylcellulose) (HPC) 100 % of control

CNC(=S)N(C1CCCCC1)C1CCCCC1
inactive: dose: 50.0 mg/kg/injection, schedule: Q01DX009 (ip), vehicle: saline with Tween-80 103 % of control | [1] 105 % of control | [2] 100 % of control

COc1cc(NC(C)CCCN)c2ncccc2c1 (stereo unspecified)
inactive: dose: 12.5 mg/kg/injection, schedule: Q01DX009 (ip), vehicle: saline sonified 118 % of control | dose: 25.0 mg/kg/injection, schedule: Q01DX009 (ip), vehicle: saline sonified 109 % of control | dose: 50.0 mg/kg/injection, schedule: Q01DX009 (ip), vehicle: saline sonified 90 % of control

COC(=O)c1nc(N)nc(C(=O)OC)c1C(=O)c1c(C)[nH]c2ccccc12
inactive: [13] 114 % of control | [14] 91 % of control

CCCCCCCCc1c(C)nc(N)[nH]c1=O
inactive: [13] 109 % of control | [14] 94 % of control | [15] 88 % of control

NNC(=O)c1cc2c3ccccc3ncc2c2ccccc12
inactive: [16] 86 % of control | [17] 95 % of control | dose: 400.0 mg/kg/injection, schedule: Q01DX001 (ip), vehicle: saline with Tween-80 113 % of control

O=C(Nc1ccc(Cl)c(C(F)(F)F)c1)Nc1c(Oc2ccc(Cl)c(Cl)c2)ccc(Cl)c1S(=O)(=O)O
inactive: dose: 25.0 mg/kg/injection, schedule: Q01DX009 (ip), vehicle: saline 118 % of control | [6] 118 % of control | [8] 118 % of control

O=C(Nc1ccccc1)c1ccccc1C(O)(c1ccccc1)c1ccc(Cl)cc1 (stereo unspecified)
inactive: [1] 95 % of control | [2] 90 % of control | dose: 400.0 mg/kg/injection, schedule: Q01DX009 (ip), vehicle: saline with Tween-80 90 % of control

Cc1csc2cc(Br)c3ccccc3c12
inactive: [16] 101 % of control | [17] 103 % of control

CCCCCCCN(CCCCCCC)CC(O)c1ccc2ccc3ccc(Cl)cc3c2c1 (stereo unspecified)
inactive: dose: 50.0 mg/kg/injection, schedule: Q01DX005 (ip), vehicle: saline with Tween-80 96 % of control | dose: 100.0 mg/kg/injection, schedule: Q01DX005 (ip), vehicle: saline with Tween-80 96 % of control | dose: 200.0 mg/kg/injection, schedule: Q01DX005 (ip), vehicle: saline with Tween-80 104 % of control

CC1OC(O[C@H]2C[C@](O)(C(=O)CO)Cc3c(O)c4c(c(O)c32)C(=O)c2c(OCc3ccccc3)cccc2C4=O)CC(N)C1O (stereo partly specified)
inactive: dose: 3.13 mg/kg/injection, schedule: Q04DX003 (ip), vehicle: water 118 % of control | dose: 6.25 mg/kg/injection, schedule: Q04DX003 (ip), vehicle: distilled water + Tween-80 110 % of control | dose: 6.25 mg/kg/injection, schedule: Q04DX003 (ip), vehicle: water 118 % of control | dose: 12.5 mg/kg/injection, schedule: Q04DX003 (ip), vehicle: water 123 % of control | dose: 25.0 mg/kg/injection, schedule: Q04DX003 (ip), vehicle: water 123 % of control

COc1cc(C=Nc2cc(Cl)c(Cl)c(Cl)c2)ccc1N(CCCl)CCCl
inactive: dose: 0.79 mg/kg/injection, schedule: Q01DX009 (ip), vehicle: Klucel (hydroxypropylcellulose) (HPC) 105 % of control

COC(=O)C(Cc1ccc(O)cc1)NC(=O)C(Cc1ccccc1)NC(C)=O (stereo not drawn) (Ac-Phe-Tyr-OMe; configuration not given here)
inactive: [9] 92 % of control | [10] 97 % of control | [11] 88 % of control

Cc1ccc(C(C)C)c2c1CN(CCN1COc3c(C(C)C)ccc(C)c3C1)CO2
inactive: [7] 99 % of control | [12] 98 % of control | [13] 91 % of control

COc1ccc(/C=C/C(=O)CCC(=O)O)cc1OC
inactive: [3] 100 % of control and 109 % of control | [6] 114 % of control | [4] 108 % of control and 109 % of control | [5] 106 % of control and 110 % of control

CCc1nc(N)nc(N)c1-c1ccc2c(c1)nnn2C
inactive: [9] 104 % of control | [10] 104 % of control | [11] 95 % of control

O=C(NC(Cc1ccc(O)cc1)C(=O)N=Nc1c(O)[nH]c2ccccc12)c1ccccc1 (stereo unspecified)
inactive: [12] 90 % of control | [13] 87 % of control and 90 % of control | [14] 90 % of control | [15] 101 % of control
